Data reported in patent US20200261534A1, “NEW TREATMENTS OF MULTIPLE MYELOMA” (priority 2017, published 2020).
Where two headings read alike, the source gives them in different places. Starred links: 1 amine or outer side, 2 acyl side, 3 side chain; linkers in the order of their positions; H or OH if unused. Positions of bridges follow the written chain, without caps; N, C: chain ends. Non-standard residues stand in square brackets, D forms with d. Residues, ends and D or L forms follow the SMILES beside them. ξ: configuration not given here. Biphenyl(4,4'-CH2)2 = c1cc(-c2ccc(C[*:2])cc2)ccc1C[*:1]; ξαMeNle(6-ylidene) = CC(CCCC=[*:3])(N[*:1])C(=O)[*:2]; X1 = CC(CCCCCCC=[*:3])(N[*:1])C(=O)[*:2]; Octanediyl(1,8) = C(CCCC[*:2])CCC[*:1]; ξC = NC(CS)C(=O)O

What was measured:
[1] = tested on: U266DOX4, lymphoblast (myeloma), selected for resistance to Doxorubicin; type: cell-based
Procedure: U266DOX4, lymphoblast (myeloma), selected for resistance to Doxorubicin (Alvarez-Fernández et al. Clin Cancer Res. 2013 May 15; 19(10):2677-87).
(§1) All cell lines were cultured in incubator at 37° C. in RPMI-1640 (Sigma R8758) medium with 10% of fetal bovine serum inactivated (FBS) and 2 mM glutamine (Sigma G7513). During the amplification step cells were centrifuged and transferred into the culturing medium. Cells were counted in a Neubauer chamber after labelling with Tripan-Blue.
(§2) Cells were seeded at a density of 10000 cells/well in 100 μl of medium in 96 well plates. After 24 h, the compounds to be tested were added to calculate the dose/response curve at the starting concentration of 100 μM with serial dilutions (1:1). Controls are the untreated cells. Each experiment was performed in triplicate.
(§3) Cells were incubated with the peptidomimetic compound (S09) at the indicated concentrations during 24-72 h in incubator under CO2 atmosphere at 37° C. Then, cell viability was measured by means of MTT (3-(4,5-dimethylthiazol-2-yl)-2,5-diphenyltetrazolium bromide) assay. Stock solution of MTT (475989 Calbiochem) was 5 mg/ml in PBS. 1×.10 μl/well of MTT solution were added and the plate was incubated for 3-4 hr. The medium was discarded and 100 μl of extracting buffer (PBS 1×, 15% SDS, 50% […] N,N-Dimethylformamide, pH 4.7) were added to each well. Plates were incubated for 16 h at room temperature under orbital shaking. Absorbance at 570 nm was finally measured. As negative control (experiment noise) 3 wells were treated with 20 μl/well of a solution of SDS 10% in H2O.
(§4) Data analysis was performed calculating the percentage of cell viability normalized vs. the values of negative control, which was considered equal to 100%. The dose/response curve was fitted through the sigmoidal equation dose-response (variable slope) and the IC50 values were calculated as follow:
(§5) Y=Bottom+(Top−Bottom)/(1+10^{[(LogIC50−X)*HillSlope]},
U266DOX4, lymphoblast (myeloma), selected for resistance to Doxorubicin (Alvarez-Fernandez et al. Clin Cancer Res. 2013 May 15; 19(10):2677-87).
(§6) All cell lines were cultured in incubator at 37° C. in RPMI-1640 (Sigma R8758) medium with 10% of fetal bovine serum inactivated (FBS) and 2 mM glutamine (Sigma G7513).
Cells were seeded at a density of 10,000 cells/well in 100 μl of medium in 96 well plates. After 24 h, the compounds to be tested were added to calculate the dose/response curve at the starting concentration of 40 μM with serial dilutions (1:1). […]
Cells were incubated with the peptidomimetic compounds at the indicated concentrations during 24-72 h in incubator under CO2 atmosphere at 37° C. Then, cell viability was measured by means of MTT (3-(4,5-dimethylthiazol-2-yl)-2,5-diphenyltetrazolium bromide) assay. […] Absorbance at 570 nm was finally measured. […]

[2] = tested on: RPMI-8266-LR5, lymphoblast (myeloma), selected for resistance to Melphalan; type: cell-based
Procedure: RPMI-8266-LR5, lymphoblast (myeloma), selected for resistance to Melphalan (Bellamy W T et al., Cancer Res. 1991 Feb. 1; 51(3):995-1002).
as §1, §2, §3, §4, §5, §6
as §2, with “of 10,000” for “of 10000”, “of 40” for “of 100”
as §3, with “compounds” for “compound (S09)”

[3] = tested on: MM1R, lymphoblast (myeloma), resistant to Dexamethasone
Procedure: MM1R, lymphoblast, (myeloma), ATCC® CRL-2975™, resistant to Dexamethasone
as §1, §2, §3, §4, §5, §6
as §2, with “of 10,000” for “of 10000”, “of 40” for “of 100”
as §3, with “compounds” for “compound (S09)”

[4] = tested on: NCI-H128, epithelial (small cell lung cancer); experiment: MTT viability assay, NCI-H128; type: cell-based
Procedure: NCI-[…], epithelial (small cell lung cancer), ATCC: HTB-120TM […] During the amplification step and the assays adherent cells were rinsed with DPBS (Dulbecco's Phosphate Buffered Saline, Sigma D1283) three times and afterward treated for 5 minutes with trypsin ([…]) (Gibco-BRL, 15400054) in solution of DPBS at 37° C., and, once detached, transferred in the culturing medium. No-adherent cells were centrifuged and transferred in the culturing medium. Cells were counted in a Neubauer chamber after labelling with Tripan-Blue. […] Cells were seeded at a density of 10,000 cells/well in 100 μl of medium in 96 well plates. […] Controls are the untreated cells. Each experiment was performed in triplicate. Cells were incubated with the compounds at the indicated concentrations during 24-72 h in incubator under CO2 atmosphere at 37° C. […] Stock solution of MTT (475989 Calbiochem) was 5 mg/ml in PBS. 1×.10 μl/well of MTT solution were added and the plate was incubated for 3-4 hr. […] Plates were incubated for 16 h at room temperature under orbital shaking. Absorbance at 570 nm was finally measured. […] The dose/response curve was fitted through the sigmoidal equation dose-response (variable slope) and the IC50 values were calculated as follow: […]

[5] = tested on: MBA-MD231, epithelial (breast cancer); experiment: MTT viability assay, MBA-MD231; type: cell-based
Procedure: MBA-MD231, epithelial (breast cancer), ECACC: 86012803 […] During the amplification step and the assays adherent cells were rinsed with DPBS (Dulbecco's Phosphate Buffered Saline, Sigma D1283) three times and afterward treated for 5 minutes with trypsin ([…]) (Gibco-BRL, 15400054) in solution of DPBS at 37° C., and, once detached, transferred in the culturing medium. No-adherent cells were centrifuged and transferred in the culturing medium. Cells were counted in a Neubauer chamber after labelling with Tripan-Blue. […] Cells were seeded at a density of 10,000 cells/well in 100 μl of medium in 96 well plates. […] Controls are the untreated cells. Each experiment was performed in triplicate. Cells were incubated with the compounds at the indicated concentrations during 24-72 h in incubator under CO2 atmosphere at 37° C. […] Stock solution of MTT (475989 Calbiochem) was 5 mg/ml in PBS. 1×.10 μl/well of MTT solution were added and the plate was incubated for 3-4 hr. […] Plates were incubated for 16 h at room temperature under orbital shaking. Absorbance at 570 nm was finally measured. […] The dose/response curve was fitted through the sigmoidal equation dose-response (variable slope) and the IC50 values were calculated as follow: […]

[6] = U266DOX4, 72 hr, Table 14, read-out: IC50 after 72 hr values
[7] = RPMI-LR5, 72 hr, Table 14, read-out: IC50 after 72 hr values
[8] = RPMI-LR5, 24 hr, Table 13, read-out: IC50 after 24 hr values

CC[C@H](C)[C@H](NC(=O)[C@H](Cc1ccc(O)cc1)NC(=O)[C@H](C)NC(=O)C1CSCCCCCCCCSCC(NC(=O)[C@H](CCCCN)NC(=O)[C@@H]2CCCN2C(=O)[C@H](C)N)C(=O)N[C@@H](C(C)C)C(=O)N[C@@H]([C@@H](C)CC)C(=O)N[C@@H](CC(C)C)C(=O)N[C@@H](CCCCN)C(=O)N[C@@H](CCCCN)C(=O)N[C@@H](C)C(=O)N1)C(=O)N[C@@H](CC(C)C)C(=O)N[C@@H](CO)C(=O)O (some centres unmarked) [IDP-P1708160] (H-APK[ξC]VILKKA[ξC]AYILS-OH; linker 4-11 via Octanediyl(1,8); N-terminus and C-terminus assumed)
IC50 [1, 6]: 7.5 µM
IC50 [2, 7]: 7.5 µM
IC50 ([3]; 24 h): 15 µM
IC50 ([3]; 72 h): 10 µM
IC50 [4]: 16 ± 1 µM
IC50 [5]: 42 ± 2 µM

CC[C@H](C)[C@H](NC(=O)[C@H](Cc1ccc(O)cc1)NC(=O)[C@H](C)NC(=O)[C@@H]1CSCc2ccc(cc2)-c2ccc(cc2)CSC[C@H](NC(=O)[C@H](CCCCN)NC(=O)[C@@H]2CCCN2C(=O)[C@H](C)N)C(=O)N[C@@H](C(C)C)C(=O)N[C@@H]([C@@H](C)CC)C(=O)N[C@@H](CC(C)C)C(=O)N[C@@H](CCCCN)C(=O)N[C@@H](CCCCN)C(=O)N[C@@H](C)C(=O)N1)C(=O)N[C@@H](CC(C)C)C(=O)N[C@@H](CO)C(=O)O [IDP-P1708161] (H-APKCVILKKACAYILS-OH; linker 4-11 via Biphenyl(4,4'-CH2)2; N-terminus and C-terminus assumed)
IC50 [2, 8]: 35 µM
IC50 [2, 7]: 35 µM
IC50 ([3]; 24 h): 12.5 µM
IC50 ([3]; 72 h): 15 µM
IC50 [4]: 14 ± 1 µM
IC50 [5]: 29 ± 2 µM

CC[C@H](C)[C@H](NC(=O)[C@H](Cc1ccc(O)cc1)NC(=O)[C@H](C)NC(=O)C1(C)CCCC=CCCCCCCC(C)(NC(=O)[C@H](CCCCN)NC(=O)[C@@H]2CCCN2C(=O)[C@H](C)N)C(=O)N[C@@H](C(C)C)C(=O)N[C@@H]([C@@H](C)CC)C(=O)N[C@@H](CC(C)C)C(=O)N[C@@H](CCCCN)C(=O)N[C@@H](CCCCN)C(=O)N[C@@H](C)C(=O)N1)C(=O)N[C@@H](CC(C)C)C(=O)N[C@@H](CO)C(=O)O (some centres unmarked) [S09, APKXVILKKAXAYILS—OH] (H-APK[X1]VILKKA[ξαMeNle(6-ylidene)]AYILS-OH; staple 4-11; N-terminus assumed)
IC50 ([1]; U266DOX4 (resistant to Doxorubicin), MTT, 24-72 h, Table 7, read-out: IC50 values in μM for S09): 5 µM
IC50 ([2]; RPMI-LR5 (resistant to Melphalan), MTT, 24-72 h, Table 7, read-out: IC50 values in μM for S09): 11.4 µM
IC50 ([3]; read-out: IC50 values in μM for S09, MM1R (resistant to Dexamethasone), MTT, 24-72 h, Table 7): 8.3 µM
IC50 ([4]; NCI-H128, MTT, 24-72 h, Table 12, read-out: IC50 values): 3 ± 1 µM
IC50 ([5]; MBA-MD231, MTT, 24-72 h, Table 12, read-out: IC50 values): 4.9 ± 0.3 µM

CC[C@H](C)[C@H](NC(=O)[C@H](Cc1ccc(O)cc1)NC(=O)[C@H](C)NC(=O)C1(C)CCCC=CCCCCCCC(C)(NC(=O)[C@H](CCCCN)NC(=O)[C@@H]2CCCN2C(=O)[C@H](C)N)C(=O)N[C@@H](C(C)C)C(=O)N[C@@H]([C@@H](C)CC)C(=O)N[C@@H](Cc2ccccc2)C(=O)N[C@@H](CCCCN)C(=O)N[C@@H](CCCCN)C(=O)N[C@@H](C)C(=O)N1)C(=O)N[C@@H](CC(C)C)C(=O)N[C@@H](CO)C(=O)O (some centres unmarked) [S14, APKXVIFKKAXAYILS—OH] (H-APK[X1]VIFKKA[ξαMeNle(6-ylidene)]AYILS-OH; staple 4-11; N-terminus assumed)
IC50 ([1]; U266DOX4, 24 hr, Table 13, read-out: IC50 after 24 hr values): 15 µM
IC50 [1, 6]: 15 µM
IC50 [2, 8]: 10 µM
IC50 [2, 7]: 10 µM
IC50 ([3]; 24 h): 15 µM
IC50 ([3]; 72 h): 15 µM
